Results taken from patent US20060069049A1, “Methods and reagents related to foxo” (President and Fellows of Harvard College, priority 2003, published 2006).

Tests used:
[1] = target: Wild-type FOXO3A (Homo sapiens) (UniProt O43524); assay: cell_activity; conditions: luciferase in adult mouse muscle
[2] = target: Constitutively active FOXO3A constitutively active (AKT phosphorylation sites, residues not stated) (Homo sapiens) (UniProt O43524); assay: cell_activity; conditions: luciferase in adult mouse muscle
Constitutively active FOXO3A constitutively active (AKT phosphorylation sites, residues not stated) (Homo sapiens), sequence (O43524 whole entry): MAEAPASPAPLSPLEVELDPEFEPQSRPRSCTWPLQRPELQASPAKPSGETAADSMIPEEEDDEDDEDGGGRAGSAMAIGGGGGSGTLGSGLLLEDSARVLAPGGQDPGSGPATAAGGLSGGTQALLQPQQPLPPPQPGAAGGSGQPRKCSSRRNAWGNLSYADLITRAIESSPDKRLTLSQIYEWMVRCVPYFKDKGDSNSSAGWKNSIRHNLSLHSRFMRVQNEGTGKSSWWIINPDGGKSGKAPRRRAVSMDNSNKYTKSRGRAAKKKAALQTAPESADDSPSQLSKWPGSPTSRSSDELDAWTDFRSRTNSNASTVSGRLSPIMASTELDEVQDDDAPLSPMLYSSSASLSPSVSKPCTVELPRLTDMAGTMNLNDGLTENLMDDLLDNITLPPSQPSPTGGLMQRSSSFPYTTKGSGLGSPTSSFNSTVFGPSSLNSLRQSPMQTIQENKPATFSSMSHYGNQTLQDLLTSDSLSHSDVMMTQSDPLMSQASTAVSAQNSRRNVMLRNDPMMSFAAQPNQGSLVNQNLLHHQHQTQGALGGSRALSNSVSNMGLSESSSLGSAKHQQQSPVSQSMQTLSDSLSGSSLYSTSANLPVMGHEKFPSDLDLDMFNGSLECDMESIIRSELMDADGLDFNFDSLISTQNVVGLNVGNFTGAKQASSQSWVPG

atrogin-1 [3] = assay: Northern blot of atrogin-1 mRNA in C2C12 myotubes; type: cell-based, mouse
Experimental: (§1) C2C12 mouse myoblasts (ATCC) were cultured in DMEM 10% FCS (ATCC) until the cells reached confluence. At that time, the medium was replaced with DMEM 2% horse serum (HS) (ATCC) (“differentiation medium”) and incubated for 4 days to induce myotube formation before proceeding with experiments. Pharmacological agents were variously used at the following final concentrations: dexamethasone (1 μM; Sigma), IGF-1 (10 ng/ml; Sigma), LiCl (10 mM; Sigma), LY294002 (10 μM, from 10 mM stock in DMSO, Calbiochem). For infection, myotubes were incubated with adenovirus at a multiplicity of infection (MOI) of 250 in differentiation medium for 18 h, and then medium was replaced. Under these conditions, infection efficiency was greater than 90%. Typical experiments for RNA and protein analysis were performed in 6-well plates. Myotube diameter was quantified as follows: five different fields at 100× magnification were chosen randomly and myotubes were measured using IMAGE software (Scion, Frederick, Md.) as previously performed (Rommel et al., 2001). All data are expressed as the mean of five measurements taken along the length of the myotube±SEM. Comparisons were made using the student's t test, with p<0.05 being considered statistically significant.
After incubation, myotubes were washed in PBS and total RNA was extracted using TRizo1 reagent (Invitrogen) according to the manufacturer's specifications. Northern blotting was performed as described elsewhere (Gomes et al., 2001). Briefly, total RNA was separated on formaldehyde-agarose gels, transferred to Zeta-Probe membrane (Bio-Rad) and UV-crosslinked. Membranes were hybridized with a full length mouse atrogin-1 probe, at 65 ° C., in Church buffer (Church and Gilbert, 1984), and analyzed by using a Fuji Phosphorimager. Blots were stripped and reprobed with a mouse GADPH probe (Ambion) to ensure equal-loading and gel transfer. The relative amounts of the bands were quantified by densitometry.

Foxo1, 3 and Foxo4 = assay: Immunoblot of phosphorylated Foxo factors in C2C12 myotubes; type: cell-based, mouse
Experimental: (§2) Anti-phospho-AKT (Ser473), anti-phospho-mTOR (Ser2448), anti-phospho-p70S6K (Thr389), anti-phospho-Foxo1 (Ser 256), anti-phospho-Foxo4 (Ser 193), anti-AKT, anti-p70S6K and anti-Foxo1 were purchased from Cell Signaling. Anti-phospho-Foxo3 (Thr32) and the FKHR (Foxo1)-GST fusion protein were from Upstate. All primary antibodies were rabbit potyclonal antibodies. HRP-conjugated goat anti-rabbit antibody was from Promega.
C2C12 mouse myoblasts (ATCC) were cultured in DMEM 10% FCS (ATCC) until the cells reached confluence. At that time, the medium was replaced with DMEM 2% horse serum (HS) (ATCC) (“differentiation medium”) and incubated for 4 days to induce myotube formation before proceeding with experiments. […] Myotube diameter was quantified as follows: five different fields at 100× magnification were chosen randomly and myotubes were measured using IMAGE software (Scion, Frederick, Md.) as previously performed (Rommel et al., 2001). All data are expressed as the mean of five measurements taken along the length of the myotube±SEM. […]
(§3) Myotube protein was also extracted with TRizo1 reagent according to the manufacturer's instructions. Protein concentration was determined by BCA assay (Pierce). […] The relative amounts of the bands were quantified by densitometry using ImageJ software.

S6K = assay: Immunoblot of phosphorylated S6K in C2C12 myotubes; type: cell-based, mouse
Experimental: as §2, §1
as §3, with “(Pierce). SDS-PAGE was performed on 4-12% gradient gels (Novex, Invitrogen) loading 20 μg protein/lane.” for “(Pierce).”

C2C12 myotubes = assay: Myotube diameter in C2C12 myotube cultures; type: cell-based, mouse; conditions: dexamethasone (1 μM) for 24 hrs
Experimental: as §1

AKT = assay: Immunoblot of phospho-AKT to total AKT in C2C12 myotubes; type: cell-based, mouse; conditions: dexamethasone treatment for 24 hrs, densitometric analysis
Experimental: Myotube protein was also extracted with TRizo1 reagent according to the manufacturer's instructions. Protein concentration was determined by BCA assay (Pierce). SDS-PAGE was performed on 4-12% gradient gels (Novex, Invitrogen) loading 20 μg protein/lane. Westerns were performed as previously (Gomes et al., 2001) and were visualized with ECL detection reagents (Amersham). […] The relative amounts of the bands were quantified by densitometry using ImageJ software.

atrogin-1 [4] = conditions: reported from Sacheck et al. (manuscript submitted) or Li et al. 2003a; cited from earlier work
FoxoGST = target: T1, FoxoGST (Homo sapiens, UniProt Q12778); assay: Electrophoretic mobility shift assay with purified FoxoGST; type: binding; conditions: for competition of FoxoGST-IGFBP1 complex formation by unlabeled oligonucleotide: 100-fold molar excess of cold competitor; for binding of FoxoGST to 32P-labeled oligonucleotide: gel shift; for competition of FoxoGST-AT Foxo 1 complex formation: increasing amounts of unlabeled oligonucleotide
T1 construct: purchased Upstate
T1 sequence (Q12778 whole entry): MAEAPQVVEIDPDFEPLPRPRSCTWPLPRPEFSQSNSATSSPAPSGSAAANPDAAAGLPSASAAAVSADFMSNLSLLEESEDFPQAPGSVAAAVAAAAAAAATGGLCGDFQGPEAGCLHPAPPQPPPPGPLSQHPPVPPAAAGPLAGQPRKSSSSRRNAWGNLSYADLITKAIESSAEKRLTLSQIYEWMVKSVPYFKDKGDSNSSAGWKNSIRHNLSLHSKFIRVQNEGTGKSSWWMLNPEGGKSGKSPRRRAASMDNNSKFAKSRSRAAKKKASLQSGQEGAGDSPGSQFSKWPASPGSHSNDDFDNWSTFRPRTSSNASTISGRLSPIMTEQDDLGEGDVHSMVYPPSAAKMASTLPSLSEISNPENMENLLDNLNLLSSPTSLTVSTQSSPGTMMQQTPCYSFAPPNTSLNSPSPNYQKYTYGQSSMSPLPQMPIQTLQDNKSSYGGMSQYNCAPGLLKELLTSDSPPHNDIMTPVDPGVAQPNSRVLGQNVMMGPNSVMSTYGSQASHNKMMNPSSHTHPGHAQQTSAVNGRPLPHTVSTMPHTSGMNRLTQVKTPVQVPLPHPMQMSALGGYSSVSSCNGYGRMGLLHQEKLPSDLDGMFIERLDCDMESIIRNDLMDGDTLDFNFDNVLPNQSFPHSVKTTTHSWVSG
Text: Double stranded oligonucleotides were labeled by T4 Polynucleotide kinase and […] (Promega). The following pairs of oligonucleotides were used (Forkhead sites are underlined): IGFBP1: 5′-[…]-3′ (SEQ ID NO:9) and 5′-[…] (SEQ ID NO:10); SP 1:5′-[…]-3′ (SEQ ID NO:11) and 5′[…]-3′ (SEQ ID NO:12); ATFoxo 1: 5′-GGGATAAATACT-GTGCTCGGGCAG-3′ (SEQ ID NO:13) and 5′-[…]-3′ (SEQ ID NO:14). ATFoxo 1mut: 5′-[…]-3′ (SEQ ID NO:15) and 5′ […]-3′ (SEQ ID NO:16). Reactions using the Gel Shift Assay System (Promega) contained the cold competitor (100-fold molar excess over labeled oligonucleotide) and 1 μl of purified FoxoGST (Upstate), and were incubated at room temperature for 10 min. The samples were then mixed with ^32P-labeled oligonucleotides for 20 min and loaded on Novex 6% DNA retardation gels (Invitrogen). After electrophoresis the gels were dried and analyzed using a Fuji Phosphorimager system.

Wild-type FOXO3A (Homo sapiens), sequence (O43524 whole entry): as the sequence (O43524 whole entry) above

3.5 kb atrogin-1 promoter
activity [1]: 3 fold
activity [2]: > 20 fold

[Cl-].[Li+] [LiCl, reference compound]
effect on atrogin-1 induction by dexamethasone (atrogin-1 [3]; myotubes, 1 μM dexamethasone 24 hrs): unable to decrease

C[C@@H]1C[C@H]2[C@@H]3CCC4=CC(=O)C=C[C@]4(C)[C@@]3(F)[C@@H](O)C[C@]2(C)[C@@]1(O)C(=O)CO [dexamethasone, reference compound]
decrease in levels of phosphorylated Foxo1 and 3 (Foxo1, 3 and Foxo4; glucocorticoid treatment 24 hrs): at least 30%
decrease in level of phosphorylated S6K (S6K; dexamethasone treatment 24 hrs): 10%
increase in atrogin-1 mRNA content (atrogin-1 [3]; cultured myotubes treated with dexamethasone (1 μM) for 24 hrs): 2-3 fold
reduction in mean myotube diameter (C2C12 myotubes): 40%
fall in ratio of phospho-AKT to total AKT (AKT): 30%

OO [hydrogen peroxide]
effect on atrogin-1 expression in myotubes (atrogin-1 [4]): expression of atrogin-1 rose

ATFoxo 1: double stranded oligonucleotide with atrogin-1 promoter forkhead site ATAAATA (SEQ ID NO:13/14) (chain 1 GGGATAAATACTGTGCTCGGGCAG; chain 2 CTGCCCGAGCACAGTATTTATCCC; listed as DNA, chemistry not fully specified)
competition of FoxoGST-IGFBP1 complex formation by unlabeled oligonucleotide (FoxoGST): markedly reduced
binding of FoxoGST to 32P-labeled oligonucleotide (FoxoGST): bound
competition of FoxoGST-AT Foxo 1 complex formation (FoxoGST): able to block

ATFoxo 1mut: mutated version of the site, ATCACTA (SEQ ID NO:15/16) (chain 1 GGGATCACTACTGTGCTCGGGCAG; chain 2 CTGCCCGAGCACAGTAGTGATCCC; listed as DNA, chemistry not fully specified)
competition of FoxoGST-IGFBP1 complex formation by unlabeled oligonucleotide (FoxoGST): did not prevent complex formation
binding of FoxoGST to 32P-labeled oligonucleotide (FoxoGST): did not bind
competition of FoxoGST-AT Foxo 1 complex formation (FoxoGST): not

IGF-1: insulin-like growth factor-1, used at 10 ng/ml (Sigma)
effect on phosphorylated Foxo1, 3 and 4 in either model of atrophy (Foxo1, 3 and Foxo4; IGF-1 10 ng/ml, starved or dexamethasone-treated myotubes): increased the levels of phosphorylated Foxo1, 3, and 4
S6K phosphorylation after IGF-1 addition (S6K; dexamethasone-treated cultures): restored S6K phosphorylation
S6K phosphorylation after IGF-1 addition (S6K; starved cells): remained largely dephosphorylated
effect on atrogin-1 mRNA in either model of atrophy (atrogin-1 [3]; IGF-1 10 ng/ml added to starved (6 hrs) or dexamethasone-treated (24 hrs) myotubes): suppressed atrogin-1 mRNA to the level in untreated myotubes
effect of IGF-1 on atrogin-1 mRNA (atrogin-1 [3]; cells expressing the constitutively active Foxo3): did not reduce
decrease in atrogin-1 mRNA content by IGF-1 (atrogin-1 [3]; cells expressing the wild type Foxo3, IGF-1 10 ng/ml): 3 fold

oligonucleotide containing an SP1 binding site: unrelated oligonucleotide containing an SP1 binding site (SEQ ID NO:11/12) (chain 1 ATTCGATCGGGGCGGGGCGAG; chain 2 CTCGCCCCGCCCCGATCGTAA; listed as DNA, chemistry not fully specified) [reference compound]
competition of FoxoGST-IGFBP1 complex formation by unlabeled oligonucleotide (FoxoGST): did not prevent complex formation

B1: IGFBP1 oligonucleotide: control oligonucleotide containing a known forkhead site from the IGFBP1 promoter (SEQ ID NO:9/10) (nucleic acid)
chain 1: CTAGCAAGCAAAACAAACTTATTTTGAACACGGGG
chain 2: CCCCGTGTTCAAAATAAGTTTGTTTTGCTTGCTAG
modifications: listed as DNA, chemistry not fully specified
competition of FoxoGST-IGFBP1 complex formation by unlabeled oligonucleotide (FoxoGST): prevented formation
binding of FoxoGST to 32P-labeled oligonucleotide (FoxoGST): bound
